From patent US6143722A, “Heptapeptide oxytocin analogues” (Ferring, B.V., priority 1996, dated 2000)
Where two headings read alike, the source gives them in different places. *1 amine or outer side, *2 acyl side, *3 side chain or, on linkers, in order; H or OH if unused. Where a SMILES comes first, the peptide text is derived from it. Bridges are numbered along the chain shown (N, C = ends). [ ]: non-standard residue; d: D form. ξ: configuration not given here. d2Nal = N[C@H](Cc1ccc2ccccc2c1)C(=O)O; aIle = CC[C@@H](C)[C@H](N)C(=O)O; hCys = N[C@@H](CCS)C(=O)O; ξNMeOrn = CNC(CCCN)C(=O)O; X1 = O=C(CC[*:2])[*:1]

Experiments:
[1] = Evaluation of stability in aqueous solution (HPLC); conditions: Isotonic citrate/phosphate buffer, pH 4.5; stored at 50° C.; loss of peptide by HPLC
Description: (§1) Solutions of the heptapeptide analogues of the present invention were prepared with compositions representative of aqueous formulations. The solutions were stored for several weeks at 50° C. and aliquots were withdrawn periodically for analysis by HPLC. Reference peptides were studied in parallel. Degradation was determined as the loss of peptide (% by weight per week), independent of the nature of the decomposition products.

[2] = target: T1, Recombinant human oxytocin receptors (Homo sapiens, UniProt P30559); test: Oxytocin receptor binding assay ([125I]-oxytocin, membrane fraction); conditions: recombinant human oxytocin receptors expressed in CHO or HEK293 cells, mean ± SEM
T1 construct: expressed in transfected cells; host or cells: CHO or HEK293 cells (membrane fraction)
T1 sequence (P30559 1-389): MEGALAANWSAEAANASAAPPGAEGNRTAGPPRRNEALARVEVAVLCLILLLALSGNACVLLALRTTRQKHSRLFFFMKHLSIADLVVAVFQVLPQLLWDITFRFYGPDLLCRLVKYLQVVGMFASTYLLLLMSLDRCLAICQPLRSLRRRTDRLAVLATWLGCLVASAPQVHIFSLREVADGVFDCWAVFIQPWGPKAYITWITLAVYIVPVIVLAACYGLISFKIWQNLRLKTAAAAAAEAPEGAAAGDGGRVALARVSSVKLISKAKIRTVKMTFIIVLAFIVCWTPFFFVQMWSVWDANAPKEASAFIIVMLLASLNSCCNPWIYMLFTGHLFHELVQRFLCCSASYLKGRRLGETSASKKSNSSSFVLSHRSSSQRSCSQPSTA
Description: i) Oxytocin receptor binding assay
Recombinant human oxytocin receptors were expressed in either CHO or HEK293 cells using standard molecular biological techniques. A membrane fraction was prepared and incubated in the presence of [^125 I]-oxytocin and varying concentrations of heptapeptide analogue. Membranes were then isolated by filtration and counted for radioactivity to determine oxytocin binding. An inhibition constant Ki was determined for the analogue.

myometrium = type: in vivo, Sprague Dawley rats; conditions: for ID50, rat model: in vivo
Description: Sprague Dawley rats (ca. 250 g) in natural estrus were anaesthetised with Inactin (0.5 mg/100 g body weight, i.p.). The activity of the myometrium was measured with the aid of a catheter fixed in the uterine cavity and filled with modified Lockes solution. The catheter was connected to a Statham P23D force transducer and the contractions were recorded on a Grass polygraph (model 7D).
The dose-response curve for oxytocin (2×10^-4 -5×10^-3 μmol/kg) was recorded. In this case the response was quantified by integration of the curve during the 15 minutes following agonist injection. A dose of oxytocin giving an effect corresponding to an intralumenar contraction pressure of 10-30 mm Hg and within the linear section of the curve was selected. This dose of oxytocin was administered to the animal in conjunction with at least two different doses of antagonist and the effect was recorded. The dose of antagonist which reduces the effect of the agonist to 50% of tis control value was determined by interpolation and is given here as an ID50 value. [ID50 value=dose of antagonist required to reduce the effect of a given agonist dose by 50%].
The duration of action of the antagonists was also determined in this model. An oxytocin dose was selected (2×10^-4 -5×10^-3μmol/kg) giving an effect corresponding to half the maximum effect (this dose is the ED50). The effect determined here is the same as for the ID50 determination defined above. An antagonist dose was selected (8×10^-4 -4×10^-3 μmol/kg) so as to give at least 50% inhibition of the response to the agonist. At the beginning of the experiment, single doses of the agonist and antagonist were co-administered. At 20 minute intervals thereafter, doses of the agonist alone were administered and the response was measured. […] [t75 value=time period required for the effectiveness of a single dose to decline by 75%].

[3] = system: Uterus muscle tissue from women in late pregnancy; test: Antagonist effect in vitro in a human uterus model (oxytocin-induced contraction of uterus muscle strips); type: cell-based; conditions: concentration of antagonist reducing the oxytocin response to 50% of control; isolated human uterus strips
Description: ii) Antagonist effect in vitro in a human uterus model
Uterus muscle tissue from women in late pregnancy undergoing Caesarean section was cut into strips which were mounted in a tissue bath filled with Krebs-Ringer buffer and oxygenated with carbogen (95% O2 +5% CO2) gas. Changes in isometric muscle tension detected with a tension transducer were recorded on a Grass polygraph.
The concentration-effect curve of oxytocin was recorded. The effect measured in this case corresponds to the net value of the integrated contraction curve during the 10 minute period following agonist (i.e. oxytocin) administration. A concentration of oxytocin giving at least half-maximal response was selected. This concentration of agonist was administered to the tissue in the presence of different concentrations of antagonist heptapeptide analogue and the response was recorded. The concentration of antagonist required to reduce the response to 50% of its control value was determined by regression analysis and is given here as an IC50 value. [IC50 value=concentration of antagonist required to reduce the effect of a given agonist dose by 50%].

[4] = pH 4.5
Description: as §1

Compound | Degradation at 50° C. (wt %/week) [1] | Ki [2] | Degradation at 50° C. (wt %/week) [4] | also measured
CC[C@H](C)[C@@H]1NC(=O)[C@@H](Cc2c[nH]c3ccccc23)NC(=O)CCSCC[C@@H](C(=O)N(C)C(CCCN)C(N)=O)NC(=O)[C@H](CC(N)=O)NC(=O)[C@H](C(C)C)NC1=O (some centres unmarked) [r-X] ([dW]IVN[hCys][ξNMeOrn]-NH2; linker N-5 via X1) | 4.3 wt %/week |  |  | 
CC[C@H](C)[C@@H]1NC(=O)[C@@H](Cc2c[nH]c3ccccc23)NC(=O)CCSCC[C@@H](C(=O)N(C)[C@H](CO)CCCN)NC(=O)[C@H](CC(N)=O)NC(=O)[C@H](CC(C)C)NC1=O [II] |  | 3.2 ± 0.75 nM |  | 
CC[C@@H](C)[C@@H]1NC(=O)[C@H]([C@@H](C)CC)NC(=O)[C@@H](Cc2c[nH]c3ccccc23)NC(=O)CCSCC[C@@H](C(=O)N(C)C(CCCN)C(N)=O)NC(=O)[C@H](CC(N)=O)NC1=O (some centres unmarked) [r-IX, reference compound] ([dW]I[aIle]N[hCys][ξNMeOrn]-NH2; linker N-5 via X1) | 2.9 wt %/week |  |  | ID50, rat model (myometrium): 2.9 ± 0.3 nmol/kg
CCC(CC)[C@@H]1NC(=O)[C@H]([C@@H](C)CC)NC(=O)[C@@H](Cc2c[nH]c3ccccc23)NC(=O)CCSCC[C@@H](C(=O)N(C)[C@H](CO)CCCN)NC(=O)[C@H](CC(N)=O)NC1=O [VII] |  | 2.4 ± 0.85 nM |  | 
CC[C@H](C)[C@@H]1NC(=O)[C@H]([C@@H](C)CC)NC(=O)[C@@H](Cc2c[nH]c3ccccc23)NC(=O)CCSCC[C@@H](C(=O)N(C)[C@H](CO)CCCN)NC(=O)[C@H](CC(N)=O)NC1=O [V] |  | 1.4 ± 0.15 nM |  | 
CC[C@H](C)[C@@H]1NC(=O)[C@@H](Cc2c[nH]c3ccccc23)NC(=O)CCSCC[C@@H](C(=O)N(C)[C@H](CO)CCCN)NC(=O)[C@H](CC(N)=O)NC(=O)[C@H](CC2CCCCC2)NC1=O [IV] |  | 7 ± 1.85 nM |  | 
CC[C@@H](C)[C@@H]1NC(=O)[C@H]([C@@H](C)CC)NC(=O)[C@@H](Cc2ccc3ccccc3c2)NC(=O)CCSCC[C@@H](C(=O)N(C)C(CCCN)C(N)=O)NC(=O)[C@H](CC(N)=O)NC1=O (some centres unmarked) [r-XI] ([d2Nal]I[aIle]N[hCys][ξNMeOrn]-NH2; linker N-5 via X1) | 4.0 wt %/week |  |  | 

Now from value to compound, other results behind:

Degradation at 50° C. (wt %/week) [1] | Ki [2] | Degradation at 50° C. (wt %/week) [4] | Compound | also measured
 | 0.25 ± 0.16 nM | 0.4 wt %/week | CC[C@@H](C)[C@@H]1NC(=O)[C@H]([C@@H](C)CC)NC(=O)[C@@H](Cc2c[nH]c3ccccc23)NC(=O)CCSCC[C@@H](C(=O)N(C)[C@H](CO)CCCN)NC(=O)[C@H](CC(N)=O)NC1=O [Peptide I] | t75, rat model (myometrium; duration of action: time for the effectiveness of a single dose to decline by 75%, antagonist dose 8×10^-4 -4×10^-3 μmol/kg): 169 ± 2 min; ID50, rat model (myometrium): 2.9 ± 0.3 nmol/kg; IC50 [3]: 5 ± 1 nM
 | 0.1 nM | 1.2 wt %/week | CC[C@@H](C)[C@@H]1NC(=O)[C@H]([C@@H](C)CC)NC(=O)[C@@H](Cc2ccc3ccccc3c2)NC(=O)CCSCC[C@@H](C(=O)N(C)[C@H](CO)CCCN)NC(=O)[C@H](CC(N)=O)NC1=O [VI] | 
 | 0.8 ± 0.3 nM | 0.7 wt %/week | CC[C@H](C)[C@@H]1NC(=O)[C@@H](Cc2c[nH]c3ccccc23)NC(=O)CCSCC[C@@H](C(=O)N(C)[C@H](CO)CCCN)NC(=O)[C@H](CC(N)=O)NC(=O)[C@H](C(C)C)NC1=O [III] | 
